# Entries after “also recorded” stand apart in the source; their conditions may differ.
# Columns and labels:
# [1] = biological target: T1, human 293 cell telomerase (Homo sapiens, UniProt O14746); assay: Conventional telomerase assay (32P-dGTP as radiolabel substrate); assay type: biochemical; settings: for Inhibition of 293 Telomerase, Conventional Assay *dGTP: up to 2 mM
# T1 construct: with 20 μl of S100 enzyme extract; endogenous in cells; host or cells: 293 cells (transformed human embryonic kidney), S100 extract
# Procedure: Telomerase was prepared from transformed human embryonic kidney 293 cell line. Human embryonic kidney 293 cells were grown in Joklik's modified MEM niedium (Sigma, St Louis, Mo.) supplemented with 5% fetal bovine serum at 37° C. in a humidified atmosphere with 5% CO2. The cells were subcultured at 1-2×10^5 cells/ml twice a week. When the cells grew to approximately 1×10^6 cells/ml, the cells (˜2×10^9 cells) were centrifuged and transferred into polypropylene centrifuge (50 ml) tubes and kept on ice. The cells were then centrifuged in a (Beckman GS-6R) centrifuge at 1200 RPM for 10 minutes at 4° C., and resuspended in PBS. The washed cells were resuspended in 15 ml Hypobuffer Mix (10 mM HEPES, pH 8.0, 3 mM KCl, 1 mM MgCl2, 1 mM dithiothreitol, 1 μM leupeptin, 0.1 mM PMSF, 10 μM pepstatin, 0.83 μg/ml chymostatin, 0.83 μg/ml antipain, and 43.2 units/ml RNase Guard) and centrifuged. The cell pellets were resuspended in 0.75×volumes Hypobuffer [Hypobuffer Mix+40 units/ml RNase Guard (Pharmacia, N.J.) to allow the cells to swell. The cell suspensions were homogenized to allow the telomerase to “leak” into the cytosolic fraction. The lysate was then poured into new, autoclaved, 3 ml polyallomer ultracentrifuge tubes and centrifuged at 100,000×g for 1 hour at 4° C. A top lipid layer was carefully removed and discarded, and the supernatant was collected. 1/50 of the volume of 5 M NaCl was added to the clear supernatant fluid to achieve a final concentration of 0.1 M. Sterile glycerol was added until the final glycerol concentration was 20%. The enzyme solution was aliquoted into Eppendorf tubes and quickly frozen in liquid nitrogen and stored at −70° C.
# The assay is based on the ability of the telomerase enzyme in the S100 fractions to recognize an 18-base DNA primer with the DNA sequence (TTAGGG)3. DNA polymerization initiates from the 3′-OH group of the oligonucleotide. By reading from its complementary internal RNA template, telomerase adds a repeated set of 5′-TTAGGG-3′ to the original 18-base primer. Non-synchronous “starts” and “terminations” among the different enzyme complexes result in a degenerative set of different length DNA primers occurring in 6-base increments. Incorporation of [α-^32P]dGTP at the guanine positions of the 5′-TTAGGG-3′ sequence allows the newly synthesized DNA fragments to be visualized by autoradiography. The resulting image forms the characteristic “ladder” structure that is used to identify telomerase activity. The images are scanned using a phosphoimager or laser densitometer (Molecular Dynamics, Sunnyvale, Calif.). Comparisons of the total volumes under the corresponding peaks are used to quantitate the total amount of [α-^32P] incorporated in the primer extension reaction.
# The telomerase assay was initiated by mixing 20 μl of 2×reaction mix (100 mM Tris-OAc, pH 8.5, 100 mM KOAc, 10 mM β-mercaptoethanol, 2 mM spermidine, 2 mM MgCl2, 2 mM dATP, 2 mM dTTP, 2 μM oligo primer, potential inhibitors of interest at the appropriate concentration, and 50 μCi [α^32-P]dGTP) with 20 μl of S100 enzyme extract. The reaction mixture was then incubated at 30° C. for 1 hour. The reaction was stopped by incubating sequentially with 50 μl of the stop solution (10 mM Tris pH 7.5, 20 mM EDTA, 0.1 mg/ml RNase A) and 50 μl of deproteinase solution (10 mM Tris pH 7.5, 0.5% SDS, 0.3 mg/ml Proteinase K). The mixture was extracted with 50% phenol/50% chloroform (v/v). The DNA was then precipitated by adding 2.5×volumes of cold EtOH and letting it stand overnight at −70° C. The DNAs were separated on an 8% polyacrylamide/7M urea denaturing gel at 1600 V for 1.5 hours. The gel was dried and exposed to Kodak XAR-5 film to gel in −70° C. Typical autoradiographic exposures required 3-14 days.
# [2] = biological target: T2, human telomerase (Homo sapiens, UniProt O14746); assay: Cell-free telomerase inhibition, conventional or modified assay not stated; assay type: biochemical
# T2 construct: telomerase in S100 extracts of transformed human fetal kidney tumor 293 cells (a processive telomerase); endogenous in cells; host or cells: human cells, (S100 extract)
# Procedure: Selected nucleoside triphosphates were tested in one or both of the “conventional” or “modified” telomerase assays described in Methods using the human processive and the CHO non-processive telomerases. Initially, three chain-terminators were selected: 2′,3′-dideoxythymidine triphosphate (ddTTP), 3′-fluoro-2′,3′-dideoxythymidine triphosphate (F-ddTTP), and 3′-azido-2′-, 3′-dideoxythymidine triphosphate (AZ-ddTTP) as prototype agents to investigate whether they could inhibit telomerase activity. The three compounds are dTTP analogs without a 3′-OH group for subsequent chain elongation. They may either incorporate into the telomere sequence and terminate further chain elongation or compete directly with dTTP for the substrate binding site in the telomerase reaction. In either case, telomerase activity is inhibited.
# [3] = system: transformed human embryonic kidney 293 cells; assay: Growth inhibition (MTT), 293 cells; assay type: cell-based; settings: HEK293, 144 h, 6 days
# Procedure: (§1) Exponentially growing cells (1-2×10^3 cells, unless specified otherwise) in 0.1 ml medium were seeded on day 0 in a 96-well microtiter plate. On day 1, 0.1 ml aliquots of medium containing graded concentrations of test analogs were added in duplicate to the cell plates. After incubation at 37° C. in a humidified incubator for 6 days, the plates were centrifuged briefly and 100 μl of the growth medium was removed. Cell cultures were incubated with 50 μl of 3-(4,5-dimethylthiazol-2-yl)-2,5-diphenyl-tetrazolium bromide, (MTT) at a concentration of 1 mg/ml in Dulbecco's phosphate buffered saline (PBS)) for 4 hr at 37° C. The resulting purple formazan precipitate was solubilized with 200 μl of 0.04 N HCl in isopropyl alcohol. Absorbance was monitored in a BioRad Model 3550 Microplate Reader at a test wavelength of 570 nm and a reference wavelength of 630 nm. The absorbance was transferred to a PC 486 computer. The IC50 values were determined by a computer program (EZ-ED50) that fits all the data to the following four-parameter logistic equation: [formula]
# (§2) where Amax is the absorbance of control cells, Amin is the absorbance of cells in the presence of highest agent concentration, Y is the observed absorbance, X is the agent concentration, IC50 is the concentration of agent that inhibits the cell growth by 50% of control cells (based on the absorbance) and n is the slope of the curve.
# (§3) This is due to the extracellular dephosphorylation of the mono-, di-, or triphosphates by […] or 5′-nucleotidase back to the nucleoside. With this in mind, the inventors used only nucleosides rather than nucleoside triphosphates in these studies. Cultured tumor cells were incubated with selected nucleosides at graded concentrations for 6 days and the growth inhibition was determined by the standard MTT assay.
# [4] = system: human colon carcinoma HT29 cells; assay: Growth inhibition (MTT), HT29 cells; assay type: cell-based; settings: HT-29, 144 h, 6 days
# Procedure: as §1, §2, §3
# T1 sequence (O14746 whole entry): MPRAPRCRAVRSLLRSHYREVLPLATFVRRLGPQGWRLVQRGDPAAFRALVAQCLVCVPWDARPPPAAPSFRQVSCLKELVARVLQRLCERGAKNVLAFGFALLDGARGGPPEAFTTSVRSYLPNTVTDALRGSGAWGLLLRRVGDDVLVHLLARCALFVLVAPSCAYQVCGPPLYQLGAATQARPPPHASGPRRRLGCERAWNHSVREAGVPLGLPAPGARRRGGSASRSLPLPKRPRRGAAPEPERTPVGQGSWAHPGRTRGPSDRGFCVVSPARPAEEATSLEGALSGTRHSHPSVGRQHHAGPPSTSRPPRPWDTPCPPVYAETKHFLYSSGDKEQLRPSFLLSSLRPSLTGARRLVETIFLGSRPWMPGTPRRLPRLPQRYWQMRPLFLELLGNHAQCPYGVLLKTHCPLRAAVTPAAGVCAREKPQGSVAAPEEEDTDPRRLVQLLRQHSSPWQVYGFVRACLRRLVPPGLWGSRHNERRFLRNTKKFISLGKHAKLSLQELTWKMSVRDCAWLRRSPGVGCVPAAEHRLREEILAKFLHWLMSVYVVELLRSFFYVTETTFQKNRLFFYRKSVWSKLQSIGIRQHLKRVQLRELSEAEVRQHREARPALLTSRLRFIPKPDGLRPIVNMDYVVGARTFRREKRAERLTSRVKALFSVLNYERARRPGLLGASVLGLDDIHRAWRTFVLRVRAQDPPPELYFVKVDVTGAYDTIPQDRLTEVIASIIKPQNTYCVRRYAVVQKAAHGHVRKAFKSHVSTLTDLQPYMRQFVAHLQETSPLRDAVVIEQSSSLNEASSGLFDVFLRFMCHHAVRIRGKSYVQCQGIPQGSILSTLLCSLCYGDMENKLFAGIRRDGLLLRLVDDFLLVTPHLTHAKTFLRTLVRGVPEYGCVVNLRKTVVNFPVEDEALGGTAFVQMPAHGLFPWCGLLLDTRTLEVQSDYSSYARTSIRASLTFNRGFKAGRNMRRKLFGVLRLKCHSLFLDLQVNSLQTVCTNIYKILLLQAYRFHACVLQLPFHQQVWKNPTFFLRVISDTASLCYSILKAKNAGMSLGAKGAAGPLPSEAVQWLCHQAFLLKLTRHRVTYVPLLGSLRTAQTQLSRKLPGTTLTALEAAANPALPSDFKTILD
# T1 sequence (O60832 whole entry partner): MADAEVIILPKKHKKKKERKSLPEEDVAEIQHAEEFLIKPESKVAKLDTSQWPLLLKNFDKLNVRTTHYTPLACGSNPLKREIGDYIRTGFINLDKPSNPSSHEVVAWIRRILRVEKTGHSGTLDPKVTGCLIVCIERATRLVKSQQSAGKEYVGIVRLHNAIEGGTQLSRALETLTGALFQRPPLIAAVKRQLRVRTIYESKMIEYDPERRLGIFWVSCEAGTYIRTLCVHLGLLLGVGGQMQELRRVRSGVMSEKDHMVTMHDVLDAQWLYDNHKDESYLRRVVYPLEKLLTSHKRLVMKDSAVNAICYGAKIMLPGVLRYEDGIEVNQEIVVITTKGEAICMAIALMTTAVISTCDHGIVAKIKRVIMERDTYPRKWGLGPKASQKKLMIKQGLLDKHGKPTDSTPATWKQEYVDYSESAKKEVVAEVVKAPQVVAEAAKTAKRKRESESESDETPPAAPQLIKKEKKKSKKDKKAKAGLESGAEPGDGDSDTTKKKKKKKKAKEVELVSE
# T1 sequence (Q9NPE3 whole entry partner): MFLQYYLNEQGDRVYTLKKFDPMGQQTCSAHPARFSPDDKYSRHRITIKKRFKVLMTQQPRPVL
# T1 sequence (Q9NX24 whole entry partner): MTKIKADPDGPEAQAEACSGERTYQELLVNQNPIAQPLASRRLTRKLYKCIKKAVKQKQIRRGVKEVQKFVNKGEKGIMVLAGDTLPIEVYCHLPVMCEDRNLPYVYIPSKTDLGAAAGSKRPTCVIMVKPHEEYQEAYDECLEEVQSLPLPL
# T1 sequence (Q9NY12 whole entry partner): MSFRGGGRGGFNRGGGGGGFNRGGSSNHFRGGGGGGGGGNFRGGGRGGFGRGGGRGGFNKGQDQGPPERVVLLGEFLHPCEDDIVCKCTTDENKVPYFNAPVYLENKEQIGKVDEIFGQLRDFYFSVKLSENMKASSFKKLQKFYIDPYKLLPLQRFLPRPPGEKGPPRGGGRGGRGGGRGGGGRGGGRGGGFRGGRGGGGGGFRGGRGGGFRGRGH
# T2 sequence (O14746 whole entry): as the sequence (O14746 whole entry) above
# T2 sequence (O60832 whole entry partner): as the sequence (O60832 whole entry partner) above
# T2 sequence (Q9NPE3 whole entry partner): as the sequence (Q9NPE3 whole entry partner) above
# T2 sequence (Q9NX24 whole entry partner): as the sequence (Q9NX24 whole entry partner) above
# T2 sequence (Q9NY12 whole entry partner): as the sequence (Q9NY12 whole entry partner) above
Molecule,IC50 [4],IC50 [3],further results
5-Allylamino-2′-Deoxyuridine-5′-Triphosphate [NA021],–,–,"% of Control ([1]; 0.125 mM): 51%; % of Control ([1]; 0.25 mM): 70%; % of Control ([1]; 0.5 mM): 43%; % of Control ([1]; 1.0 mM): 33%; % of Control ([1]; 2.0 mM): 30%; % of Control ([1]; 10 mM (so in the source)): 100%; IC50 ([1]; 293 cell telomerase): ~500 µM; Inhibition of 293 Telomerase, Conventional Assay *dGTP [1]: concentration dependent inhibition; also recorded: the telomerase activity is weak)"
Cc1cn([C@H]2C[C@H](O)[C@@H](COP(=O)(O)OP(=O)(O)OP(=O)(O)O)O2)c(=O)[nH]c1=S [4-thiothymidine triphosphate],–,–,inhibition of human telomerase activity ([2]; 1 mM): completely
"Nc1ncnc2c1c(I)cn2[C@H]1C[C@H](O)[C@@H](CO)O1 [FS004, 7-Iodo-7-Deaza-2′-Deoxyadenosine]",1.88 µM,0.319 µM,–
"N#Cc1cn([C@H]2C[C@H](O)[C@@H](CO)O2)c2ncnc(N)c12 [FS005, 7-Cyano-7-Deaza-2′-Deoxyadenosine]",51.2 µM,18.2 µM,–
"Nc1ncnc2c1c(I)nn2[C@H]1C[C@H](O)[C@@H](CO)O1 [FS015, 7-Iodo-7-Deaza-8-Aza-2′-Deoxyadenosine]",8.09 µM,1.88 µM,–
"Nc1ncnc2c1c(Cl)cn2[C@H]1C[C@H](O)[C@@H](CO)O1 [FS017, 7-Chloro-7-Deaza-2′-Deoxyadenosine]",15.6 µM,3.32 µM,–
"Nc1ncnc2c1c(Br)cn2[C@H]1C[C@H](O)[C@@H](CO)O1 [FS018, 7-Bromo-7-Deaza-2′-Deoxyadenosine]",0.963 µM,1.14 µM,–
"Nc1nc2c(c(Cl)cn2[C@H]2C[C@H](O)[C@@H](CO)O2)c(=O)[nH]1 [FS019, 7-Chloro-7-Deaza-2′-Deoxyguanosine]",109 µM,237 µM,–
"Nc1nc2c(c(Br)cn2[C@H]2C[C@H](O)[C@@H](CO)O2)c(=O)[nH]1 [FS020, 7-Bromo-7-Deaza-2′-Deoxyguanosine]",170 µM,180 µM,–
"Nc1nc2c(c(I)cn2[C@H]2C[C@H](O)[C@@H](CO)O2)c(=O)[nH]1 [FS021, 7-Iodo-7-Deaza-2′-Deoxyguanosine]",78.8 µM,63.4 µM,–
"Cc1cn([C@H]2C[C@H](O)[C@@H](CO)O2)c2nc(N)[nH]c(=O)c12 [FS022, 7-Methyl-7-Deaza-2′-Deoxyguanosine]",196 µM,489 µM,–
"Cc1cn([C@H]2C[C@H](O)[C@@H](CO)O2)c2ncnc(N)c12 [FS024, 7-Methyl-7-Deaza-2′-Deoxyadenosine]",99.6 µM,109 µM,–
"Cc1cn([C@H]2CC[C@@H](COP(=O)(O)OP(=O)(O)OP(=O)(O)O)O2)c(=O)[nH]c1=O [NA001, 2′,3′-Dideoxythymidine-5′-Triphosphate]",–,–,"IC50 ([1]; 293 cells telomerase, competing dTTP 1-2 mM, inhibitor 0 to 2 mM): ~500 µM"
"Nc1nc2c(ncn2[C@@H]2O[C@H](COP(=O)(O)OP(=O)(O)CP(=O)(O)O)[C@@H](O)[C@H]2O)c(=O)[nH]1 [NA011, Guanosine-5′-β,γ-Methylene Triphosphate]",–,–,"% of Control ([1]; 0.125 mM): 82%; % of Control ([1]; 0.25 mM): 63%; % of Control ([1]; 0.5 mM): 86%; % of Control ([1]; 1.0 mM): 70%; % of Control ([1]; 2.0 mM): 65%; Inhibition of 293 Telomerase, Conventional Assay *dGTP [1]: inactive; also recorded: No Inhibition (up to 2 mM)"
"Nc1nc2c(ncn2[C@H]2C[C@H](O)[C@@H](COP(=O)(O)OP(=O)(O)CP(=O)(O)O)O2)c(=O)[nH]1 [NA014, 2′-Deoxyguanosine-5′-β,γ-Methylene Triphosphate]",–,–,"IC50 ([2]; Summary values, assay variant not stated, read-out: IC50): 102 µM; remaining activity at 125 µM ([1]; 0.125 mM, read-out: % of Control): 60%; remaining activity at 250 µM ([1]; 0.25 mM, read-out: % of Control): 38%; remaining activity at 500 µM ([1]; 0.5 mM, read-out: % of Control): 42%; remaining activity at 1000 µM ([1]; 1.0 mM, read-out: % of Control): 40%; remaining activity at 2000 µM ([1]; 2.0 mM, read-out: % of Control): 28%; IC50 ([1]; 293 cell telomerase): < 125 µM"
"Nc1nc2c(ncn2[C@H]2C[C@H](O)[C@@H](COP(O)(O)=S)O2)c(=O)[nH]1 [NA015, 2′-Deoxyguanosine-5′-Phosphorothioate]",–,–,"Inhibition of 293 Telomerase, Conventional Assay *dGTP [1]: No Inhibition (up to 2 mM)"

# The next lines start with results.
IC50 [4],Molecule,IC50 [3],further results
146 µM,"Nc1ncnc2c1ccn2[C@H]1C[C@H](O)[C@@H](CO)O1 [NA024, 7-Deaza-2′-Deoxyadenosine]",533 µM,–
102 µM,"Nc1nc2c(ccn2[C@H]2C[C@H](O)[C@@H](CO)O2)c(=O)[nH]1 [NA025, 7-Deaza-2′-Deoxyguanosine]",130 µM,–
310 µM,"Cn1c(N)nc2c(ccn2[C@H]2C[C@H](O)[C@@H](CO)O2)c1=S [NA027, 1-Methyl-6-Thio-7-Deaza-2′-Deoxyguanosine]",161 µM,–

# — patent US6593306B1, “Methods for modulation and inhibition of telomerase” (Board of Regents, The University of Texas Systems, priority 1995, dated 2003)
